According to article PMC2174006 (The Journal of Cell Biology, 2002):

Biological target: T1, Rab32 (Homo sapiens, UniProt Q13637)
T1 sequence (Q13637 1-225): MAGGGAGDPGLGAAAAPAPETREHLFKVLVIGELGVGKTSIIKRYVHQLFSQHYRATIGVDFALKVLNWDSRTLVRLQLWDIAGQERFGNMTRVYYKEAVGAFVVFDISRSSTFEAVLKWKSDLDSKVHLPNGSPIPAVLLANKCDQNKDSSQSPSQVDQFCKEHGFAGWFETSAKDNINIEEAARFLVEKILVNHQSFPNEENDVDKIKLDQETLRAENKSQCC
Experiment: radiolabelled nucleotide dissociation
Format: binding
Details: labelled compound ([3H]GDP); pH 7.5, 50 mM Tris-HCl, high magnesium; GST fusion

Nc1nc2c(ncn2[C@@H]2O[C@H](COP(=O)(O)OP(=O)(O)O)[C@@H](O)[C@H]2O)c(=O)[nH]1 [GDP]
t 1/2 (dissociation): 7.5 min
